Experimental data reported in US11596623B2, “Methods for treating virus infection or proliferation” (HOWARD UNIVERSITY, priority 2018, dated 2023).

Experiments:
[1] = target: T1, RACK1A Y248 phosphorylation (Arabidopsis thaliana, UniProt O24456); test: ABA-induced RACK1A Y248 phosphorylation in seedlings, western blot; type: in vivo; conditions: 10 μM ABA, 12 hours, one-week old seedlings
T1 construct: from tissue; host or cells: Arabidopsis seedlings or plants (wild type); lysates
Procedure: One-week old Arabidopsis seedlings were treated with 10 μM of stress hormone Abscisic acid (ABA) in the presence/absence of the inhibitor compounds for 12 hours in a growth chamber (overnight) at 22° C. Lysates were probed with an antibody raised to detect phosphorylated Y248 residue of RACK1A protein in Arabidopsis. Lysates from rack1a-1 knock-out mutant seedlings grown and treated similarly as the wild-type seedlings were used as a negative control. The compounds were dissolved in DMSO (D) and ABA was dissolved in methanol (M).
Proteins were separated by SDS-PAGE (25 μg loaded in each lane), transferred to nitrocellulose membranes (Amersham Inc., Piscataway, N.J., USA), and blocked with 5% nonfat milk for 60 min at room temperature. Membranes were incubated overnight at 4° C. with primary antibody, followed by incubation with a horseradish peroxidase-coupled secondary antibody and detection with enhanced chemiluminescence (Pierce, Rockford, Ill., USA), according to standard methods. Membranes were stripped with stripping buffer (100 mM 2-mercaptoethanol, 2% SDS, 62.5 mM Tris-HCl, pH 6.8), washed with PBS-0.1% Tween-20, and used to detect additional proteins. For Arabidopsis lysates one-week old seedlings were treated with 10 uM of ABA in the presence/absence of the inhibitor compounds for 12 hours in a growth chamber (overnight) at 22° C. mostly in the dark. […]

RACK1 = target: T2, RACK1 (Homo sapiens, UniProt P63244); test: RACK1 protein western in EV-D68 infected HEp-2 cells; type: cell-based; conditions: 48 h
T2 construct: endogenous in cells; host or cells: HEp-2 cells (human laryngeal carcinoma line), virus-infected
Procedure: HEp-2 cells were grown to 80-90% confluency in Dulbecco's Modified Eagle's medium (DMEM) supplemented with 10% fetal calf serum (FCS) and 1% penicillin-streptomycin (PS) and fungicide. The virus and the indicated concentration of compounds were added and incubated for 48 h. After washing with PBS, the cell lysates were collected and were run in a Biorad XT-Criterion gel and transferred to a PVDF membrane. The membrane was blotted with an antibody directed against the EVD68 major structural protein VP1 purchased from Genetex (Irvine, Calif.). An anti-mouse IgG-HRP secondary antibody and Biorad's Western ECL substrate-Clarity was used to label the bands and the image was obtained in a Biorad Gel doc system. […] The tubulin antibody was used as the loading control.
HEp-2 cells were grown to 80-90% confluency in Dulbecco's Modified Eagle's medium (DMEM) supplemented with 10% fetal calf serum FCS and 1% penicillin-streptomycin (PS) and fungicide. The representative virus (EV-D68) and the indicated concentration of compounds were added and incubated for 48 h. After washing with PBS, the cell lysates were collected and were run in a Biorad XT-Criterion gel and transferred to a PVDF membrane. The membrane was blotted with an antibody directed against the EV-D68 major structural protein VP1 purchased from Genetex (Irvine, Calif.). […]

T1 sequence (O24456 whole entry): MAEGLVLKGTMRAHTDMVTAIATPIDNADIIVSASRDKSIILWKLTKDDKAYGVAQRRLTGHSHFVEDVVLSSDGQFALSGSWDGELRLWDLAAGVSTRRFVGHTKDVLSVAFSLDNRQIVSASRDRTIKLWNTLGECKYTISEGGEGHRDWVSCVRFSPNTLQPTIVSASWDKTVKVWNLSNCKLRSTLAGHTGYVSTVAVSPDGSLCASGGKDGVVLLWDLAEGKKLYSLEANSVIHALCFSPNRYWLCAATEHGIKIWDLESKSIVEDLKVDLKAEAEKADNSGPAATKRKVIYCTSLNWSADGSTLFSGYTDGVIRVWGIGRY

Question: `Nn1c(S)nnc1-c1cc(Cl)cc(Cl)c1` [SD29-14] was tested. Which “ABA-induced RACK1A Y248 phosphorylation” value [1] did it give?
Answer: prevented the ABA-induced Y248 phosphorylation

Question: And the RACK1 protein level (RACK1)?
Answer: loss of RACK1 protein

Question: `Nn1c(S)nnc1-c1ccc(F)cc1` [SD-29] was tested. Which “ABA-induced RACK1A Y248 phosphorylation” value [1] did it give?
Answer: prevented the ABA-induced Y248 phosphorylation
